Where two headings read alike, the source gives them in different places.
What was measured:
[1] = tested on: edema induced by carrageenin in rat paws; assay: Carrageenin paw edema in rats; format: in vivo; details: read-out: Carrageenin paw edema-rats ED50
[2] = tested on: writhing induced in mice by 2-phenyl-1,4-benzoquinone; assay: Phenylquinone (2-phenyl-1,4-benzoquinone) writhing in mice, analgesic activity; format: in vivo; details: Mus musculus, read-out: Phenylquinone writhing-mice ED50
Description: Exp. Biol. Med., 95, 729 (1957)]. The activity of several representative compounds of the present invention and of aspirin and phenylbutazone is expressed as ED50, the dose (mg/kg) of compound producing a 50% reduction in the number of writhes as compared to non-treated 2-phenyl-1,4-benzoquinone dosed controls.

[3] = tested on: yeast-induced pyrexia in rats; assay: Antipyretic assay, yeast-induced pyrexia in rats; format: in vivo, female Charles River or Wistar rats; details: Rattus norvegicus; dose producing ≥ 1° reduction in rectal temperature in 50 percent of fevered rats; oral; 2 hours past drug
Procedure: A common property of useful anti-inflammatory agents is their ability to lower elevated body temperatures. […] Groups of ten female Charles River or Wistar rats (120-150 gm) are injected with a 20% water suspension of "Brewers Yeast" subcutaneously into the nape of the neck (10 ml/kg). The animals are starved (water ad lib.) and 18 hours later rectal temperatures are monitored (Tele-Thermometer, Yellow Springs Instrument Co., Inc., Yellow Springs, Ohio). Animals with a temperature ≥ 37.2°C. are considered fevered. Drugs are administered orally (10 ml/kg) using distilled water and, if insoluble, one drop of a dispersing agent, e.g. "Tween 80," per 10 ml. Temperatures are recorded 2 hours past drug. Significant activity is a reduction in rectal temperature ≥ 1° from the mean control temperature. The activity of the compounds tested is expressed as ED50, the dose (mg/kg) of a compound producing a reduction of ≥ 1° in rectal temperature of fevered rats from the mean fevered control temperature in 50 percent of the animals.

[4] = Gastric irritation assay in fasted rats; details: rat, po
Procedure: A common but undesirable side effect of anti-inflammatory agents is the production of gastric irritation in mammals. […] Groups of male or female rats (Wistar, Long Evans or Charles River), 150-180 gm, are utilized for this assay using 10 animals per dose group. The animals are starved for 48 hours (H2 O ad lib) prior to administration of drug orally at 10 ml/kg. Drugs are prepared using distilled water solutions or, if insoluble, 1 drop of a dispersing agent, e.g. "Tween 80"/10 ml, is used with homogenization. The control group receives the vehicle only (10 ml/kg). […] Stomachs are removed and examined for gastric irritation, which is defined as ulceration and/or hemorrhage of gastric mucosa. The presence of a single ulcer or hemorrhage spot is taken as positive and stomachs must be "clean" to be negative. A dose response is run at the peak time using at least four dose levels of test drug. In the table, gastric irritability is expressed as ID50, the dose (mg/kg) of compound producing irritation in 50 percent of the animals after seven hours.

[5] = tested on: adjuvant-induced arthritis in rats; assay: Adjuvant-induced arthritis in rats; format: in vivo; details: Rattus norvegicus, 504 h; for inhibition in vivo at 50 mg/kg: 50 mg/kg/day; for inhibition in vivo at 50 mg/kg / inhibition in vivo at 100 mg/kg / inhibition in vivo at 10 mg/kg / inhibition in vivo at 25 mg/kg: rats, day 21; for inhibition in vivo at 100 mg/kg: 100 mg/kg/day; for inhibition in vivo at 10 mg/kg: 10 mg/kg/day; for inhibition in vivo at 25 mg/kg: 25 mg/kg/day
[6] = read-out: % Inhibition of Edema on Day 21, Adjuvant Injected Paw
[7] = read-out: % Inhibition of Edema on Day 21, Non-Injected Paw
[8] = dose producing 50% reduction in edema vs non-treated controls, rats
[9] = dose producing 50% reduction in number of writhes vs non-treated controls, mice

SMILES	ED50 [1] [mg/kg]	ED50 [2] [mg/kg]	ED50 [3] [mg/kg]	TD50 at 7 h ([4]; in vivo) [mg/kg]	inhibition in vivo at 200 mg/kg [5, 6] [%]	inhibition in vivo at 200 mg/kg [5, 7] [%]	ED50 [1, 8] [mg/kg]	ED50 [2, 9] [mg/kg]	TD50 at 7 h [4] [mg/kg]	inhibition in vivo at 50 mg/kg [5, 6] [%]	inhibition in vivo at 50 mg/kg [5, 7] [%]	inhibition in vivo at 100 mg/kg [5, 6] [%]	inhibition in vivo at 100 mg/kg [5, 7] [%]	inhibition in vivo at 10 mg/kg [5, 6] [%]	inhibition in vivo at 10 mg/kg [5, 7] [%]	inhibition in vivo at 25 mg/kg [5, 6] [%]	inhibition in vivo at 25 mg/kg [5, 7] [%]
CC(=O)Oc1ccccc1C(=O)O [Aspirin, reference compound]	130 to 140	53	35	42	37	47	–	–	–	–	–	–	–	–	–	–	–
CCCCC1C(=O)N(c2ccccc2)N(c2ccccc2)C1=O [Phenylbutazone, reference compound]	–	–	< 50	–	–	–	83	89	75	60	71	–	–	–	–	–	–
O=C(O)c1cc(-n2c(-c3ccccc3)cc3c2CCCC3)ccc1O [1-(3-Carboxy-4-hydroxyphenyl)-2-phenyl-4,5,6,7-tetrahydroindole]	–	–	41	–	–	–	87	17	130	38	72	65	80	–	–	–	–
O=C(O)c1cc(-n2c(-c3ccccc3)cc3c2CCC3)ccc1O [1-(3-Carboxy-4-hydroxyphenyl)-2-phenyl-1,4,5,6-tetrahydrocyclopenta[b]pyrrole]	–	–	< 50	–	–	–	110	10	125	–	–	57	75	–	–	–	–
O=C(O)c1cc(-n2c(-c3ccccc3)cc3c2CCCC3)ccc1S [1-(3-Carboxy-4-mercaptophenyl)-2-phenyl-4,5,6,7-tetrahydroindole]	–	–	–	–	–	–	140	–	–	67	80	–	–	23	23	43	57
O=C(O)c1cc(-n2c(-c3ccccc3)cc3c2CCCCC3)ccc1O [1-(3-Carboxy-4-hydroxyphenyl)-1,4,5,6,7,8-hexahydro-2-phenylcyclohepta[b]pyrrole]	–	–	100	–	–	–	125	10	> 200	–	–	75	90	–	–	–	–
O=C(O)c1cc(-n2c(-c3ccccc3)cc3c4ccccc4ccc32)ccc1O [3-(3-Carboxy-4-hydroxyphenyl)-2-phenylbenz[e]indole]	–	–	> 100	–	–	–	90	16.5	> 200	70	70	–	–	–	–	45	50
CC(=O)Oc1ccc(-n2c(-c3ccccc3)cc3c2CCc2ccccc2-3)cc1C(=O)O [3-(4-Acetoxy-3-carboxyphenyl)-4,5-dihydro-2-phenylbenz[e]indole]	–	–	–	–	–	–	70	16.5	> 300	56	68	82	93	–	–	–	–
O=C(O)c1cc(-n2c(-c3ccc(F)cc3)cc3c2CCCC3)ccc1O [1-(3-Carboxy-4-hydroxyphenyl)-2-(4-fluorophenyl)-4,5,6,7-tetrahydroindole]	–	–	–	–	–	–	88	–	–	–	–	56	64	–	–	–	–
O=C(O)c1cc(-n2c(-c3ccccc3)cc3c2CCc2ccccc2-3)ccc1O [3-(3-Carboxy-4-hydroxyphenyl)-4,5-dihydro-2-phenylbenz[e]indole]	–	–	69	–	–	–	63	10	300 to 350	69	81	–	–	27	29	49	72
